The values below come from patent US20220169628A1 (University of Florida Research Foundation, Incorporated, priority 2019, published 2022).

The structures appear in SMILES notation. Like-named read-outs stand apart in the source and are kept apart here.

The subject of assay [1] is RS4;11 cells. In words: Cell viability assay, MTS, 48 h, RS4;11. The assay is classed as cell-based. Conditions: 48 hours, read-out: IC50 (48 hours) RS4;11. The procedure:
(§1) Acute lymphoblastic leukemia cells (MOLT-4 and RS4; 11) or small cell lung cancer (NCI-H146 or simply H146) were incubated with increasing concentrations of Bcl-xL degraders for 48 h. Cell viability was measured by tetrazolium-based MTS assay.

The subject of assay [2] is MOLT-4 cells. In words: Cell viability assay, MTS, 48 h, MOLT-4. As to conditions: 48 hours, read-out: IC50 (48 hours) MOLT-4. The assay is classed as cell-based. The procedure:
as §1

On to `Cc1ncsc1-c1ccc([C@H](C)NC(=O)[C@@H]2C[C@@H](O)CN2C(=O)[C@@H](NC(=O)CCCCCCC(=O)NCCN(C)CC2(C)CCC(c3ccc(Cl)cc3)=C(CN3CCN(c4ccc(C(=O)NS(=O)(=O)c5ccc(N[C@H](CCN6CCOCC6)CSc6ccccc6)c(S(=O)(=O)C(F)(F)F)c5)cc4)CC3)C2)C(C)(C)C)cc1` (stereo partly drawn) [compound 61, N1-(2-(((4′-chloro-4-methyl-6-((4-(4-(((4-(((R)-4-morpholino-1-(phenylthio)butan-2-yl)amino)-3-((trifluoromethyl)sulfonyl)phenyl)sulfonyl)carbamoyl)phenyl)piperazin-1-yl)methyl)-2,3,4,5-tetrahydro-[1,1′-biphenyl]-4-yl)methyl)(methyl)amino)ethyl)-N8-((S)-1-((2S,4R)-4-hydroxy-2-(((S)-1-(4-(4-methylthiazol-5-yl)phenyl)ethyl)carbamoyl)pyrrolidin-1-yl)-3,3-dimethyl-1-oxobutan-2-yl)octanediamide], for which the IC50 was 50 to 150 nM in assay [1] (Homo sapiens, RS4-11, 48 h) and 150 to 500 nM in assay [2] (Homo sapiens, MOLT-4, 48 h).
For `Cc1ncsc1-c1ccc([C@H](C)NC(=O)[C@@H]2C[C@@H](O)CN2C(=O)[C@@H](NC(=O)CCCCCCCC(=O)NCCN(C)CC2(C)CCC(c3ccc(Cl)cc3)=C(CN3CCN(c4ccc(C(=O)NS(=O)(=O)c5ccc(N[C@H](CCN6CCOCC6)CSc6ccccc6)c(S(=O)(=O)C(F)(F)F)c5)cc4)CC3)C2)C(C)(C)C)cc1` (some centres unmarked) [compound 62], in that order: below 50 nM and 150 to 500 nM.
In the same order, the values of `Cc1ncsc1-c1ccc([C@H](C)NC(=O)[C@@H]2C[C@@H](O)CN2C(=O)[C@@H](NC(=O)CCCC(=O)N2CCN(C(=O)C3(C)CCC(c4ccc(Cl)cc4)=C(CN4CCN(c5ccc(C(=O)NS(=O)(=O)c6ccc(N[C@H](CCN7CCOCC7)CSc7ccccc7)c(S(=O)(=O)C(F)(F)F)c6)cc5)CC4)C3)CC2)C(C)(C)C)cc1` (stereo partly drawn) [compound 63, (2S,4R)-1-((2S)-2-(5-(4-(4′-chloro-4-methyl-6-((4-(4-(((4-(((R)-4-morpholino-1-(phenylthio)butan-2-yl)amino)-3-((trifluoromethyl)sulfonyl)phenyl)sulfonyl)carbamoyl)phenyl)piperazin-1-yl)methyl)-2,3,4,5-tetrahydro-[1,1′-biphenyl]-4-carbonyl)piperazin-1-yl)-5-oxopentanamido)-3,3-dimethylbutanoyl)-4-hydroxy-N—((S)-1-(4-(4-methylthiazol-5-yl)phenyl)ethyl)pyrrolidine-2-carboxamide] are above 500 nM and above 500 nM.
For `Cc1ncsc1-c1ccc([C@H](C)NC(=O)[C@@H]2C[C@@H](O)CN2C(=O)[C@@H](NC(=O)CCCCCC(=O)N2CCN(C(=O)C3(C)CCC(c4ccc(Cl)cc4)=C(CN4CCN(c5ccc(C(=O)NS(=O)(=O)c6ccc(N[C@H](CCN7CCOCC7)CSc7ccccc7)c(S(=O)(=O)C(F)(F)F)c6)cc5)CC4)C3)CC2)C(C)(C)C)cc1` (stereo partly drawn) [compound 64, (2S,4R)-1-((2S)-2-(7-(4-(4′-chloro-4-methyl-6-((4-(4-(((4-(((R)-4-morpholino-1-(phenylthio)butan-2-yl)amino)-3-((trifluoromethyl)sulfonyl)phenyl)sulfonyl)carbamoyl)phenyl)piperazin-1-yl)methyl)-2,3,4,5-tetrahydro-[1,1′-biphenyl]-4-carbonyl)piperazin-1-yl)-7-oxoheptanamido)-3,3-dimethylbutanoyl)-4-hydroxy-N—((S)-1-(4-(4-methylthiazol-5-yl)phenyl)ethyl)pyrrolidine-2-carboxamide], in that order: 50 to 150 nM and 50 to 150 nM.
For the molecule `Cc1ncsc1-c1ccc([C@H](C)NC(=O)[C@@H]2C[C@@H](O)CN2C(=O)[C@@H](NC(=O)CCCCCCC(=O)N2CCN(C(=O)C3(C)CCC(c4ccc(Cl)cc4)=C(CN4CCN(c5ccc(C(=O)NS(=O)(=O)c6ccc(N[C@H](CCN7CCOCC7)CSc7ccccc7)c(S(=O)(=O)C(F)(F)F)c6)cc5)CC4)C3)CC2)C(C)(C)C)cc1` (stereo partly drawn) [compound 65, (2S,4R)-1-((2S)-2-(8-(4-(4′-chloro-4-methyl-6-((4-(4-(((4-(((R)-4-morpholino-1-(phenylthio)butan-2-yl)amino)-3-((trifluoromethyl)sulfonyl)phenyl)sulfonyl)carbamoyl)phenyl)piperazin-1-yl)methyl)-2,3,4,5-tetrahydro-[1,1′-biphenyl]-4-carbonyl)piperazin-1-yl)-8-oxooctanamido)-3,3-dimethylbutanoyl)-4-hydroxy-N—((S)-1-(4-(4-methylthiazol-5-yl)phenyl)ethyl)pyrrolidine-2-carboxamide], the IC50 is below 50 nM in assay [1] (Homo sapiens, RS4-11, 48 h) and below 50 nM in assay [2] (Homo sapiens, MOLT-4, 48 h).
With `Cc1ncsc1-c1ccc([C@H](C)NC(=O)[C@@H]2C[C@@H](O)CN2C(=O)[C@@H](NC(=O)CCCCCCCC(=O)N2CCN(C(=O)C3(C)CCC(c4ccc(Cl)cc4)=C(CN4CCN(c5ccc(C(=O)NS(=O)(=O)c6ccc(N[C@H](CCN7CCOCC7)CSc7ccccc7)c(S(=O)(=O)C(F)(F)F)c6)cc5)CC4)C3)CC2)C(C)(C)C)cc1` (stereo partly drawn) [compound 66, (2S,4R)-1-((2S)-2-(9-(4-(4′-chloro-4-methyl-6-((4-(4-(((4-(((R)-4-morpholino-1-(phenylthio)butan-2-yl)amino)-3-((trifluoromethyl)sulfonyl)phenyl)sulfonyl)carbamoyl)phenyl)piperazin-1-yl)methyl)-2,3,4,5-tetrahydro-[1,1′-biphenyl]-4-carbonyl)piperazin-1-yl)-9-oxononanamido)-3,3-dimethylbutanoyl)-4-hydroxy-N—((S)-1-(4-(4-methylthiazol-5-yl)phenyl)ethyl)pyrrolidine-2-carboxamide], the IC50 in assay [1] (Homo sapiens, RS4-11, 48 h) was below 50 nM; in assay [2] (Homo sapiens, MOLT-4, 48 h), below 50 nM.
For the molecule `Cc1ncsc1-c1ccc([C@H](C)NC(=O)[C@@H]2C[C@@H](O)CN2C(=O)[C@@H](NC(=O)CN2CCN(CC3(C)CCC(c4ccc(Cl)cc4)=C(CN4CCN(c5ccc(C(=O)NS(=O)(=O)c6ccc(N[C@H](CCN7CCOCC7)CSc7ccccc7)c(S(=O)(=O)C(F)(F)F)c6)cc5)CC4)C3)CC2)C(C)(C)C)cc1` (stereo partly drawn) [compound 67, (2S,4R)-1-((2S)-2-(2-(4-((4′-chloro-4-methyl-6-((4-(4-(((4-(((R)-4-morpholino-1-(phenylthio)butan-2-yl)amino)-3-((trifluoromethyl)sulfonyl)phenyl)sulfonyl)carbamoyl)phenyl)piperazin-1-yl)methyl)-2,3,4,5-tetrahydro-[1,1′-biphenyl]-4-yl)methyl)piperazin-1-yl)acetamido)-3,3-dimethylbutanoyl)-4-hydroxy-N—((S)-1-(4-(4-methylthiazol-5-yl)phenyl)ethyl)pyrrolidine-2-carboxamide], the IC50 in assay [1] (Homo sapiens, RS4-11, 48 h) lay within 50 to 150 nM; in assay [2] (Homo sapiens, MOLT-4, 48 h), 50 to 150 nM.
Consider `Cc1ncsc1-c1ccc([C@H](C)NC(=O)[C@@H]2C[C@@H](O)CN2C(=O)[C@@H](NC(=O)CCCN2CCN(CC3(C)CCC(c4ccc(Cl)cc4)=C(CN4CCN(c5ccc(C(=O)NS(=O)(=O)c6ccc(N[C@H](CCN7CCOCC7)CSc7ccccc7)c(S(=O)(=O)C(F)(F)F)c6)cc5)CC4)C3)CC2)C(C)(C)C)cc1` (stereo partly drawn) [compound 68, (2S,4R)-1-((2S)-2-(4-(4-((4′-chloro-4-methyl-6-((4-(4-(((4-(((R)-4-morpholino-1-(phenylthio)butan-2-yl)amino)-3-((trifluoromethyl)sulfonyl)phenyl)sulfonyl)carbamoyl)phenyl)piperazin-1-yl)methyl)-2,3,4,5-tetrahydro-[1,1′-biphenyl]-4-yl)methyl)piperazin-1-yl)butanamido)-3,3-dimethylbutanoyl)-4-hydroxy-N—((S)-1-(4-(4-methylthiazol-5-yl)phenyl)ethyl)pyrrolidine-2-carboxamide], for which the IC50 is 150 to 500 nM in assay [1] (Homo sapiens, RS4-11, 48 h) and above 500 nM in assay [2] (Homo sapiens, MOLT-4, 48 h).
As to `Cc1ncsc1-c1ccc([C@H](C)NC(=O)[C@@H]2C[C@@H](O)CN2C(=O)[C@@H](NC(=O)CCCCCN2CCN(CC3(C)CCC(c4ccc(Cl)cc4)=C(CN4CCN(c5ccc(C(=O)NS(=O)(=O)c6ccc(N[C@H](CCN7CCOCC7)CSc7ccccc7)c(S(=O)(=O)C(F)(F)F)c6)cc5)CC4)C3)CC2)C(C)(C)C)cc1` (stereo partly drawn) [compound 69, (2S,4R)-1-((2S)-2-(6-(4-((4′-chloro-4-methyl-6-((4-(4-(((4-(((R)-4-morpholino-1-(phenylthio)butan-2-yl)amino)-3-((trifluoromethyl)sulfonyl)phenyl)sulfonyl)carbamoyl)phenyl)piperazin-1-yl)methyl)-2,3,4,5-tetrahydro-[1,1′-biphenyl]-4-yl)methyl)piperazin-1-yl)hexanamido)-3,3-dimethylbutanoyl)-4-hydroxy-N—((S)-1-(4-(4-methylthiazol-5-yl)phenyl)ethyl)pyrrolidine-2-carboxamide], the IC50 in assay [1] and in assay [2] was 50 to 150 nM throughout.
With `CC1(CNC(=O)CCCCNc2cccc3c2C(=O)N(C2CCC(=O)NC2=O)C3=O)CCC(c2ccc(Cl)cc2)=C(CN2CCN(c3ccc(C(=O)NS(=O)(=O)c4ccc(N[C@H](CCN5CCOCC5)CSc5ccccc5)c(S(=O)(=O)C(F)(F)F)c4)cc3)CC2)C1` (stereo partly drawn) [compound 70, 4-(4-((4′-chloro-4-((5-((2-(2,6-dioxopiperidin-3-yl)-1,3-dioxoisoindolin-4-yl)amino)pentanamido)methyl)-4-methyl-3,4,5,6-tetrahydro-[1,1′-biphenyl]-2-yl)methyl)piperazin-1-yl)-N-((4-(((R)-4-morpholino-1-(phenylthio)butan-2-yl)amino)-3-((trifluoromethyl)sulfonyl)phenyl)sulfonyl)benzamide], the IC50 lay in the range of 50 to 150 nM in assay [1] (Homo sapiens, RS4-11, 48 h) and 50 to 150 nM in assay [2] (Homo sapiens, MOLT-4, 48 h).

In general, IC50 refers to the concentration that gives 50% inhibition.
